Assay results as given in patent publication US9907737B2, “Composition comprising ferulic acid ethyl ester and aryl alkanol” (L'AIR LIQUIDE, SOCIETE ANONYME POUR L'ETUDE ET …, priority 2013, dated 2018).
Marks after values point to notes of the source that are not given here.

Tests used:
P. aeruginosa ATCC: 9027 = assay: Bacterial count reduction test (method 1), P. aeruginosa; assay type: cell-based, Pseudomonas aeruginosa; conditions: o/w-Lotion, initial bacterial count 1.2 × 10^9
Protocol: (§1) Method 1: Bacterial Count Reduction Test
(§2) The aim of this bacterial count reduction test is to determine suitable preservatives and reaction times for samples injected in the laboratory.
(§3) Staphylococcus aureus, Escherichia coli or Pseudomonas aeruginosa, Candida albicans, Aspergillus brasiliensis
(§4) The titres of the respectively produced test organism suspensions are determined by means of a dilution series in physiological NaCl and recorded.
(§5) The samples are displaced with different concentrations of suitable preservatives. For each test bacterium a dilution series is required. The samples are injected individually with the respective test organism suspension and stirred well:
(§6) 25 g samples=0.1 ml bacterial suspension
(§7) 50 g samples=0.2 ml bacterial suspension.
(§8) After the indicated reaction times the samples are firstly stirred homogenously with a sterile glass rod and then spread onto CSA or SA agar. The bacteria samples are spread onto CSA and incubated for 48 hours at 37° C. The mould and yeast samples are spread onto SA agar and incubated for 48 hours at 37° C. (Candida albicans) and at 25° C. (Aspergillus brasiliensis).

C. albicans ATCC: 10231 = assay: Bacterial count reduction test (method 1), C. albicans; assay type: cell-based, Candida albicans
Protocol: as §1, §2, §3
A 4 day old Candida albicans culture on SA-agar (II subculture) is washed with 5 ml physiological NaCl and adjusted according to a barium sulphate standard (cf. DVG Guidelines). The titer of the Candida albicans suspension is 10^8 CFU/ml.
as §4, §5, §6, §7, §8

E. coli ATCC: 11229 = assay: Bacterial count reduction test (method 1), E. coli; assay type: cell-based, Escherichia coli; conditions: o/w cream, initial bacterial count 1.3 × 10^9
Protocol: as §1, §2, §3
(§9) From a 24-hour CS-angular agar culture (I subculture) of Staphylococcus aureus/Escherichia coli 24-hour CSL-cultures (II subculture) are created. The incubation is carried out at 37° C. The titer of the bacterial suspension is about 10^9 CFU/ml.
as §4, §5, §6, §7, §8

[1] = system: A. brasiliensis ATCC: 16404; assay: Bacterial count reduction test (method 1), A. brasiliensis; assay type: cell-based, Aspergillus brasiliensis
Protocol: as §1, §2, §3
A 7 to 14 days old Aspergillus brasiliensis culture on SA agar (25° C.±1° C.) is washed with 5 ml physiological NaCl, filtered by a glass funnel with glass wool and filled with physiological NaCl to 100 ml. The titre of the Aspergillus brasiliensis suspension is about 10^7 CFU/ml.
as §4, §5, §6, §7, §8

S. aureus ATCC: 6538 = assay: Bacterial count reduction test (method 1), S. aureus; assay type: cell-based, Staphylococcus aureus
Protocol: as §1, §2, §3, §9, §4, §5, §6, §7, §8

[2] = Water solubility (statement); assay type: physicochemical
[3] = Antimicrobial effect (preliminary work, general statements); conditions: preliminary work / general statement
[4] = o/w cream, initial bacterial count 4.1 × 10^8
[5] = o/w-Lotion, initial bacterial count 5.4 × 10^8
[6] = o/w cream, initial bacterial count 1.5 × 10^7
[7] = o/w-Lotion, initial bacterial count 7.7 × 10^7
[8] = o/w cream, initial bacterial count 1 × 10^9
[9] = o/w-Lotion, initial bacterial count 2.2 × 10^9

Row | Compound | Growth of P. aeruginosa ATCC: 9027 after 24 hours (P. aeruginosa ATCC: 9027) | Growth of P. aeruginosa ATCC: 9027 after 72 hours (P. aeruginosa ATCC: 9027) | Growth of P. aeruginosa ATCC: 9027 after 168 hours (P. aeruginosa ATCC: 9027) | Growth of P. aeruginosa ATCC: 9027 after 336 hours (P. aeruginosa ATCC: 9027) | Growth of C. albicans ATCC: 10231 after 24 hours (C. albicans ATCC: 10231; [4]) | Growth of C. albicans ATCC: 10231 after 72 hours (C. albicans ATCC: 10231; [4]) | Growth of C. albicans ATCC: 10231 after 168 hours (C. albicans ATCC: 10231; [4]) | Growth of C. albicans ATCC: 10231 after 336 hours (C. albicans ATCC: 10231; [4]) | Growth of C. albicans ATCC: 10231 after 24 hours (C. albicans ATCC: 10231; [5]) | Growth of C. albicans ATCC: 10231 after 72 hours (C. albicans ATCC: 10231; [5]) | Growth of C. albicans ATCC: 10231 after 168 hours (C. albicans ATCC: 10231; [5]) | Growth of C. albicans ATCC: 10231 after 336 hours (C. albicans ATCC: 10231; [5]) | Growth of E. coli ATCC: 11229 after 24 hours (E. coli ATCC: 11229) | Growth of E. coli ATCC: 11229 after 72 hours (E. coli ATCC: 11229) | Growth of A. brasiliensis ATCC: 16404 after 24 hours [1, 6] | Growth of A. brasiliensis ATCC: 16404 after 72 hours [1, 6] | Growth of A. brasiliensis ATCC: 16404 after 168 hours [1, 6] | Growth of S. aureus ATCC: 6538 after 24 hours (S. aureus ATCC: 6538; [8]) | Growth of S. aureus ATCC: 6538 after 72 hours (S. aureus ATCC: 6538; [8]) | Growth of S. aureus ATCC: 6538 after 168 hours (S. aureus ATCC: 6538; [8]) | further results
1 | CCCCC(CC)COC(=O)/C=C/c1ccc(O)c(OC)c1 (centres unmarked) [0.1% ferulic acid-2-ethylhexylester, ferulic acid (2-ethyl hexyl) ester] | +++ (Heavy growth About 10^4) | ++++ (Massive growth About 10^5) | ++++ (Massive growth About 10^5) | ++++ (Massive growth About 10^5) | ++++ (Massive growth About 10^5) | ++++ (Massive growth About 10^5) | ++++ (Massive growth About 10^5) | ++++ (Massive growth About 10^5) | R (Surface covered About 10^6) | R (Surface covered About 10^6) | ++++ (Massive growth About 10^5) | ++++ (Massive growth About 10^5) | R (Surface covered About 10^6) | ++++ (Massive growth About 10^5) | R (Surface covered About 10^6) | ++++ (Massive growth About 10^5) | ++++ (Massive growth About 10^5) | ++++ (Massive growth About 10^5) | ++++ (Massive growth About 10^5) | ++++ (Massive growth About 10^5) | Growth of E. coli ATCC: 11229 after 168 hours (E. coli ATCC: 11229): R (Surface covered About 10^6); Growth of E. coli ATCC: 11229 after 336 hours (E. coli ATCC: 11229): R (Surface covered About 10^6); Growth of A. brasiliensis ATCC: 16404 after 336 hours [1, 6]: ++++ (Massive growth About 10^5); Growth of A. brasiliensis ATCC: 16404 after 24 hours [1, 7]: ++++ (Massive growth About 10^5); Growth of A. brasiliensis ATCC: 16404 after 72 hours [1, 7]: ++++ (Massive growth About 10^5); Growth of A. brasiliensis ATCC: 16404 after 168 hours [1, 7]: ++++ (Massive growth About 10^5); Growth of A. brasiliensis ATCC: 16404 after 336 hours [1, 7]: ++++ (Massive growth About 10^5); Growth of S. aureus ATCC: 6538 after 336 hours (S. aureus ATCC: 6538; [8]): +++ (Heavy growth About 10^4); Growth of S. aureus ATCC: 6538 after 24 hours (S. aureus ATCC: 6538; [9]): R (Surface covered About 10^6); Growth of S. aureus ATCC: 6538 after 72 hours (S. aureus ATCC: 6538; [9]): ++++ (Massive growth About 10^5); Growth of S. aureus ATCC: 6538 after 168 hours (S. aureus ATCC: 6538; [9]): ++++ (Massive growth About 10^5); Growth of S. aureus ATCC: 6538 after 336 hours (S. aureus ATCC: 6538; [9]): ++++ (Massive growth About 10^5)
2 | CCOC(=O)/C=C/c1ccc(O)c(OC)c1 [0.1% ferulic acid-ethyl ester, ferulic acid ethyl ester] | ++++ (Massive growth About 10^5) | ++++ (Massive growth About 10^5) | ++++ (Massive growth About 10^5) | ++++ (Massive growth About 10^5) | R (Surface covered About 10^6) | R (Surface covered About 10^6) | R (Surface covered About 10^6) | R (Surface covered About 10^6) | ++++ (Massive growth About 10^5) | ++++ (Massive growth About 10^5) | ++++ (Massive growth About 10^5) | ++++ (Massive growth About 10^5) | R (Surface covered About 10^6) | R (Surface covered About 10^6) | ++++ (Massive growth About 10^5) | ++++ (Massive growth About 10^5) | ++++ (Massive growth About 10^5) | ++++ (Massive growth About 10^5) | R (Surface covered About 10^6) | R (Surface covered About 10^6) | Water solubility, in words [2]: poor water solubility; Antimicrobial effect, in words [3]: much weaker antimicrobial effect than ferulic acid itself; Growth of E. coli ATCC: 11229 after 168 hours (E. coli ATCC: 11229): ++++ (Massive growth About 10^5); Growth of E. coli ATCC: 11229 after 336 hours (E. coli ATCC: 11229): R (Surface covered About 10^6); Growth of A. brasiliensis ATCC: 16404 after 336 hours [1, 6]: +++ (Heavy growth About 10^4); Growth of A. brasiliensis ATCC: 16404 after 24 hours [1, 7]: ++ (Moderate growth About 10^3); Growth of A. brasiliensis ATCC: 16404 after 72 hours [1, 7]: +++ (Heavy growth About 10^4); Growth of A. brasiliensis ATCC: 16404 after 168 hours [1, 7]: +++ (Heavy growth About 10^4); Growth of A. brasiliensis ATCC: 16404 after 336 hours [1, 7]: ++++ (Massive growth About 10^5); Growth of S. aureus ATCC: 6538 after 336 hours (S. aureus ATCC: 6538; [8]): ++++ (Massive growth About 10^5); Growth of S. aureus ATCC: 6538 after 24 hours (S. aureus ATCC: 6538; [9]): ++++ (Massive growth About 10^5); Growth of S. aureus ATCC: 6538 after 72 hours (S. aureus ATCC: 6538; [9]): ++++ (Massive growth About 10^5); Growth of S. aureus ATCC: 6538 after 168 hours (S. aureus ATCC: 6538; [9]): +++ (Heavy growth About 10^4); Growth of S. aureus ATCC: 6538 after 336 hours (S. aureus ATCC: 6538; [9]): +++ (Heavy growth About 10^4)
3 | OCCCc1ccccc1 [0.75% 3-phenyl-propanol-1, 3-phenyl-1-propanol] | – | – | – | – | ++++ (Massive growth About 10^5) | ++++ (Massive growth About 10^5) | + (Slight growth About 10^2) | – | – | – | – | – | ++ (Moderate growth About 10^3) | – | ++++ (Massive growth About 10^5) | +++ (Heavy growth About 10^4) | + (Slight growth About 10^2) | ++++ (Massive growth About 10^5) | ++++ (Massive growth About 10^5) | +++ (Heavy growth About 10^4) | Antimicrobial effect, in words [3]: good anti-microbial effect
